“Also recorded” adds a separate entry of the source.
Legend:
[1] = tested on: RNAPII at c-MYC promoter in MCF-7 cells; test: ChIP, RNA polymerase II occupancy at c-MYC promoter; type: cell-based, human; details: MCF-7, 24 h, ChIP-qPCR versus IgG control
Protocol: (§1) Chromatin immunoprecipitation studies are conducted to monitor the promoter occupancies of different transcription factors (Sp1, NM23-H2 and Nucleolin) and RNA polymerase II (RNAPII) on the region encompassing c-MYC-NHE III1 ([69]). We have grown MCF-7 cells in 10-cm^2 culture flask at a density of 1 × 10^6 cells per well and treated with the synthetic peptides (FK13, KR12A, KR12B, and KR12C) for 24 hours. Cells are cross-linked with 1% formaldehyde at room temperature for 10 min and the reaction is stopped by 0.125 M glycine at room temperature for 10 min. Fixed cells are lysed and sonicated to yield DNA fragments of 200–500 bp. ChIP-grade antibodies (NM23-H2 (L-15) Antibody (sc-14790, Santa Cruz), and Anti-Nucleolin antibody [4E2]-ChIP Grade (Abcam)), Anti Sp1 antibody (Sigma), and Rpb1 (RNAPII subunit b1) CTD (C-terminal domain) 4H8 antibody are added to the sonicated chromatin and incubated overnight at 4°C. Then, 10 μl protein A magnetic beads (Dynal, Invitrogen), previously washed in RIPA buffer are added to the samples and bead–protein complexes are washed thrice with RIPA buffer and twice with TE buffer. The genomic DNA is eluted for 2 h at 68°C in complete elution Buffer (20 mM Tris, pH 7.5, 5 mM EDTA, 50 mM NaCl, 1% SDS and 50 μg/ml proteinase K) and further combined with the DNA eluted from second elution for 10 min at 68°C in 100 μl of elution buffer (20 mM Tris, pH 7.5, 5 mM EDTA and 50 mM NaCl). ChIP-isolated DNA is purified using MinElute Purification kit (Qiagen) and is amplified by PCR (Polymerase Chain Reaction) reactions using forward and reverse primers ([70]) (Supplementary Table S4) specific to the quadruplex-enriched regions at c-MYC promoter and Phusion® High-Fidelity PCR Kit (NEB). Anti-rabbit IgG is employed for mock immunoprecipitation (Negative control).

[2] = tested on: VEGF-A promoter (VEGF-A-GQ) in MCF-7 cells; test: Dual-luciferase assay, VEGF-A promoter with VEGF-A-GQ; type: cell-based, human; details: MCF-7, 24 h, peptide 0–60 μM
Protocol: (§2) MCF-7 cells are sub-cultured into 24-well microtiter plates at a cell density of 1 × 10^5 cells/well. Reporter constructs (c-MYC, BCL-2, KRAS and VEGF-A) (500 ng) with and/or without the G-quadruplex scaffolds triggering the expression of Renilla luciferase are co-transfected with 50 ng of pGL3-control vectors (Promega) (used as internal control), encoding firefly luciferase into MCF-7 cells using Lipofectamine® 3000 transfection reagent (Thermo-Fisher Scientific) following manufacturer's recommendations (Supplementary information Section 1). Twenty four hours post-transfection, cells are treated with peptides (FK13, KR12A, KR12B, KR12C, KR12D and KR12E) at an increasing concentration gradient.
(§3) Dual-luciferase assays are performed to examine the intracellular selectivity of peptides for c-MYC quadruplex isomers (Pu27, Myc22 and Pu19) over other oncogenic quadruplexes (BCL-2, VEGF-A and KRAS) of different topologies. The role of peptide-quadruplex complex in oncogene promoter activation is investigated in contrast to the GQ-null promoter constructs into MCF-7 cells ([67]). After 24 h of peptide treatment, cells are washed and lysed into 100 μl 1× Passive lysis buffer (PLB) for 15 min at room temperature. Renilla and firefly Luciferase activities in 25 μl lysate are quantified by Dual-Luciferase® reporter assay system (Promega) as per manufacturer's recommendations. Renilla luciferase enzyme activity is normalized to that of the firefly luciferase activity and luminescence of the peptide-treated samples are normalized to the untreated ones, which yield the fold induction values for Renilla activities by different quadruplex structures in presence and absence of synthetic peptides. Luminescence of each sample is detected in GloMax® 20/20 Single-Tube Luminometer (Promega) in triplicates and averaged from three independent experiments.

[3] = tested on: c-MYC promoter with Pu19 isomer in MCF-7 cells; test: Dual-luciferase assay, c-MYC promoter under control of Pu19; type: cell-based, human; details: MCF-7, 24 h peptide treatment
Protocol: as §2, §3

[4] = tested on: Nucleolin at c-MYC-NHE III1 in MCF-7 cells; test: ChIP, Nucleolin occupancy at c-MYC-NHE III1; type: cell-based, human; details: MCF-7, 24 h, ChIP-qPCR versus IgG control
Protocol: as §1

[5] = tested on: NM23-H2 at c-MYC-NHE III1 in MCF-7 cells; test: ChIP, NM23-H2 occupancy at c-MYC-NHE III1; type: cell-based, human; details: MCF-7, 24 h, ChIP-qPCR versus IgG control
Protocol: as §1

[6] = tested on: native c-MYC quadruplex (Pu27); test: ITC of peptides with native c-MYC quadruplex Pu27 in potassium phosphate buffer; type: binding, human; details: for K A / Kd / ΔG (binding energy) / ΔH (binding enthalpy) / ΔS (entropy): 25°C, 20 μM peptide in cell, 500 μM Pu27 in syringe, 10 mM potassium phosphate, 0.1 M KCl, pH 7.0, one-site model
Protocol: The putative wild-type and truncated G-quadruplex forming sequences (Table 2 and Supplementary Table S1), located at the upstream of c-MYC promoter are reconstituted in 10 mM Potassium Phosphate buffer (pH 7.0) having 100 mM potassium chloride (KCl). The sequences are allowed to evolve G-quadruplex structure in solution by annealing at 95°C followed by gradual cooling. (Supplementary information Section 1).
Thermodynamic attributes of the interaction profiles between peptides and putative quadruplex sequences are analysed by ITC using iTC200 Microcalorimeter at 25°C. Synthetic peptides (FK13, KR12A, KR12B, KR12C, KR12D and KR12E) are diluted to 20 μM in 10 mM Potassium phosphate buffer (10 mM K2HPO4 + 10 mM KH2PO4) containing 0.1 M KCl (pH 7.0). Syringe is filled with 500 μM quadruplex sequences present in the upstream promoter regions of c-MYC (Pu27, Pu19, and Myc22), BCL-2 (Pu30), VEGF-A (Pu22), KRAS (Pu32) oncogenes, and telomere (Tel26) dissolved into the same buffer. We also carried out the experiment for KR12C and Pu27 using MCF-7 nuclear extract as the solvent to mimic the cellular microenvironment and impart macromolecular crowding during binding events. Same concentration of oligonucleotides is injected into the identical buffer or in nuclear extract without peptides to normalize the heat of dilution of peptide-quadruplex association to that of the control before curve-fitting. Oligonucleotides are injected 20 times at an interval of 150 s into the calorimeter cell having the peptides to achieve binding saturation. The heat of reaction per injection (μcal/s) is determined by integration of the peak areas using in-built Origin 7.0 software that provides the best-fit values of enthalpy (ΔH) and entropy (ΔS) of binding, the binding stoichiometry (n), and dissociation constant (Kd) (Supplementary Tables S5(a), S5(b) and S5(c)). Data points are further simulated with ‘one-site’ binding modes (Supplementary information Section 1).

[7] = tested on: Sp1 at c-MYC-NHE III1 in MCF-7 cells; test: ChIP, Sp1 occupancy at c-MYC-NHE III1; type: cell-based, human; details: MCF-7, 24 h, ChIP-qPCR versus IgG control
Protocol: as §1

[8] = potassium phosphate buffer pH 7.0

| Substance | RNAPII occupancy at c-MYC promoter [1] | VEGF-A promoter activity [2] | c-MYC promoter activation under control of Pu19 [3] | Nucleolin occupancy at c-MYC-NHE III1 [4] | NM23-H2 occupancy at c-MYC-NHE III1 [5] | K A [6] | Kd [6] | ΔG (binding energy) [6] | ΔH (binding enthalpy) [6] | ΔS (entropy) [6] | Sp1 occupancy at c-MYC-NHE III1 [7] | c-MYC promoter attrition in presence of Pu19, fold [3] | fold higher binding ΔH for Pu27 association compared to KR12B and KR12D [6, 8] | times higher affinity for Pu27 compared to KR12B and KR12D [6, 8] |
| --- | --- | --- | --- | --- | --- | --- | --- | --- | --- | --- | --- | --- | --- | --- |
| N – FKRIVQRIKDFLR – C [FK13] | did not significantly altered | significantly downregulate; also recorded: strongly inhibited | attenuated | no role | no role | 28900 M⁻¹ | 34.6 µM | -5.982 kcal/mol | -77.8 kcal/mol | −241 cal/mol/deg | no role | – | – | – |
| N – KRIVKRIKKWLR – C [KR12B, dodecameric mutant peptide derived from FK13 / LL37] | significantly depleted | strongly inhibited | weaker | depleted the abundance | depleted the abundance | 26800 M⁻¹ | 37.3 µM | -6.18 kcal/mol | -137.3 kcal/mol | −440 cal/mol/deg | no role in Sp1 occupancy | – | – | – |
| N – KRIVQRIKKWLR – C [KR12A, dodecameric mutant peptide derived from FK13 / LL37] | depleted RNAPII occupancy | significantly downregulate | attenuated | did not significantly affect | slightly enriched | 16200 M⁻¹ | 61.7 µM | -6.44 kcal/mol | -72 kcal/mol | −220 cal/mol/deg | slightly enriched | – | – | – |
| N – KRIVKLIKKWLR – C [KR12C] | significantly depleted | no significant impact | – | depleted | depleted | 124000 M⁻¹ | 8.06 µM | -6.974 kcal/mol | -47.8 kcal/mol | −137 cal/mol/deg | depleted | ~5 fold | ~2 fold | ~5 times |

— publication PMC6212778, “Site-specific amino acid substitution in dodecameric peptides determines the stability and unfolding of c-MYC quadruplex promoting apoptosis in cancer cells” (Nucleic Acids Research, 2018)
